Test results published in article doi:10.1101/2023.04.17.537234, “A biophysical rationale for the selective inhibition of PTP1B over TCPTP by nonpolar terpenoids” (bioRxiv, 2023).

Key:
PTP1B [1] = conditions: PTP1B over TCPTP; cited from earlier work
Solubility = type: physicochemical
PTP1B [2] = test: pNPP enzyme kinetics, inhibition by amorphadiene; type: biochemical, H. Sapiens
Experimental: (§1) We overexpressed all proteins examined in this study in BL21(DE3) cells by carrying out steps described previously: (i) We used Gibson assembly to introduce mutations for PTP1B or TCPTP encoded by a pET16b vector and transformed sequence-confirmed plasmids into BL21(DE3) cells. (ii) We used an individual colony from each transformation to inoculate 20 mL of LB media, which we incubated at 37°C in an incubator-shaker (225 rpm) for 6 hours, prior to inoculating 1 L of rich induction media (20 g tryptone, 10 g yeast extract, 5 g sodium chloride, 50 μg/mL carbenicillin, 72 mL 5X M9 salts solution, 20 mL of 20% glucose solution). (iii) We grew the resulting inoculum at 37°C and 225 rpm. (iv) At an OD600 of 0.5–0.8, we added 500 μM IPTG to induce protein expression and incubated the induced flasks at 22°C and 225 rpm for 18–20 hours. (v) We pelleted the final culture (5000 rpm for 10 minutes in a Beckman J2-HS floor centrifuge), disposed of the supernatants, and stored the cell pellets at −80°C freezer for future purification. We purified PTP variants with fast protein liquid chromatography (FPLC) using previously described protocols. In brief, we lysed cells with chemical lysis buffer (for each gram of cell pellet, we used 4 mL of 20 mM tris base, 50 mM sodium chloride, 1% Triton X-100, and pH 7.5 supplemented with 2 mg MgSO4–7H2O, 2 mg TAME, 0.5 mL TCEP (0.5 mM), 3.75 μL PMSF solution, 1 mg lysozyme, and 30 U DNase), removed protein debris with saturated ammonium sulfate (20% for PTP1B variants and 10% TCPTP variants, respectively), and extracted the supernatant. We purified PTPs by using nickel affinity chromatography (HisTrap HP with 50 mM Tris-HCl, 300 mM sodium chloride, and 0.5 mM TCEP at pH 7.5 with and without 500 mM imidazole) followed by anion exchange chromatography (HiTrap HP 5 mL with 50 mM HEPES, and 0.5 mM TCEP at pH 7.5 with and without 1 M NaCl). We concentrated final protein fractions into NaCl-free anion exchange buffer ([…], Sartorius) and stored them in 20% glycerol at −80°C.
(§2) We characterized the activity of PTP variants on p-nitrophenyl phosphate (pNPP). In brief, we used 96-well plates to prepare 200-μL reactions with 50 nM enzyme, 50 μg/mL BSA, and varying amorphadiene concentrations (0.5 – 500 μM) in 50 mM HEPES buffer (pH = 7.3) with 10% DMSO. We used 20 mM substrate to initialize the reactions and monitored the formation of p-nitrophenol (pNP) by measuring absorbance at 405 nm at 30-s intervals over 8 minutes (SpectraMax iD3 plate reader). We used standard curves to convert absorbance measurements to product concentrations and used the slopes of the initial rate regime for Vo.

TCPTP = test: pNPP enzyme kinetics, inhibition by amorphadiene; type: biochemical, H. Sapiens
Experimental: as §1, §2

SMILES	selectivity: inhibits PTP1B more potently than TCPTP (PTP1B [1])	solubility (Solubility)	IC50 of AD, mutant vs wild-type (PTP1B [2]; PTP1B L158F vs wild-type)	IC50 of AD, mutant vs wild-type (PTP1B [2]; PTP1B M282K)	IC50 of AD, mutant vs wild-type (PTP1B [2]; PTP1B Q290R)	IC50 of AD, mutant vs wild-type (TCPTP; TCPTP K280M)	IC50 of AD, mutant vs wild-type (TCPTP; TCPTP L158F vs wild-type)	IC50 of AD, mutant vs wild-type (TCPTP; TCPTP R288Q)
CCc1oc2cc(S(=O)(=O)Nc3ccc(S(=O)(=O)Nc4nccs4)cc3)ccc2c1C(=O)c1cc(Br)c(O)c(Br)c1 [BBR, 3-(3,5-Dibromo-4-hydroxy-benzoyl)-2-ethyl-benzofuran-6-sulfonic-acid-(4-(thiazol-2-ylsulfamyl)-phenyl)-amide, reference compound]	5–6 X							
CC(C)=CCC=C(C)C1CC=C(C)CC1 (stereo not drawn) [AB, α-bisabolene]	5–7 X	low solubility						
C=C(C)[C@@H]1CC[C@@H](C)[C@@H]2CCC(C)=C[C@@H]21 [AD, amorphadiene]	5–7 X		indistinguishable	reduced potency	reduced potency	no effect on IC50	indistinguishable	no effect on IC50
